Results from patent US11446312B2, “Compounds that modulate von Willebrand factor levels and their use in the treatment of blood disorders” (SOCIETE DES PRODUITS NESTLE S.A., priority 2018, dated 2022).

Tested on: vWF
Test: Cultured Human Endothelial Cell vWF Expression Assay
Type: cell-based
Conditions: human iPSC-derived endothelial cells, 24h treatment, immunofluorescence intensity, vs DMSO control
Method: Human induced-pluripotent stem cell derived endothelial cells and accompanying growth media were purchased from Cellular Dynamics International. ECs were cultured according to the manufacturer's protocol (Cellular Dynamics International). ECs were plated at a density of 10′000-15′000 cells/cm^2 in culture vessels which have been coated with fibronectin (Invitrogen) and maintained in a low oxygen incubator (37° C., 5% CO2, 5% O2). The EC maintenance media was exchanged every other day and comprised of VascuLife Basal medium +VascuLife VEGF medium complete kit (Lifeline Cell Technologies). For all experiments ECs of passage 0 or 1 were used. The Celastrol used was a synthetic organic chemical manufactured in the United States and purchased from Novus (catalog reference number NBP2-29362). vWF primary antibody was obtained from Abcam (ab6994), tubulin primary antibody was obtained from Abcam (ab7291), and the secondary antibodies were Alexa fluor (anti-mouse and anti-rabbit) obtained from Thermo Fisher Scientific.
Endothelial cells were plated into 96-well glass-bottom plates at a density of 10,000 cells per well. […] Quantification of the fluorescence intensity (which is indicative of protein levels) was performed using the MetaXpress software. […]
The figure (FIG. 1) depicts the quantification of the data for human endothelial cells treated with celastrol as described above. […]

CC1=C(O)C(=O)C=C2C1=CC=C1[C@@]2(C)CC[C@@]2(C)[C@@H]3C[C@](C)(C(=O)O)CC[C@]3(C)CC[C@]12C [Celastrol, 10-Hydroxy-2,4a,6a,9,12b,14a-hexamethyl-11-oxo-1,2,3,4,4a,5,6,6a,11,12b,13,14,14a,14b-tetradecahydro-picene-2-carboxylic acid]
vWF protein expression (normalized by the expression of tubulin) (1 μM celastrol): significantly (***p<0.001) reduces vWF protein expression
vWF protein expression (normalized by the expression of tubulin) (10 μM celastrol): significantly (***p<0.001) reduces vWF protein expression
